Assays:
medaka ARβ (mArβ) [1] = target: T1, medaka ARβ (mArβ) (Oryzias latipes, UniProt D1MV73); assay: Medaka ARβ reporter gene assay, antagonist assay; format: cell-based, Japanese medaka (Oryzias latipes); details: 11‐KT spiked at 50 nM (D); MAC = 1.0 × 10^−5 M
T1 sequence (D1MV73 1-744): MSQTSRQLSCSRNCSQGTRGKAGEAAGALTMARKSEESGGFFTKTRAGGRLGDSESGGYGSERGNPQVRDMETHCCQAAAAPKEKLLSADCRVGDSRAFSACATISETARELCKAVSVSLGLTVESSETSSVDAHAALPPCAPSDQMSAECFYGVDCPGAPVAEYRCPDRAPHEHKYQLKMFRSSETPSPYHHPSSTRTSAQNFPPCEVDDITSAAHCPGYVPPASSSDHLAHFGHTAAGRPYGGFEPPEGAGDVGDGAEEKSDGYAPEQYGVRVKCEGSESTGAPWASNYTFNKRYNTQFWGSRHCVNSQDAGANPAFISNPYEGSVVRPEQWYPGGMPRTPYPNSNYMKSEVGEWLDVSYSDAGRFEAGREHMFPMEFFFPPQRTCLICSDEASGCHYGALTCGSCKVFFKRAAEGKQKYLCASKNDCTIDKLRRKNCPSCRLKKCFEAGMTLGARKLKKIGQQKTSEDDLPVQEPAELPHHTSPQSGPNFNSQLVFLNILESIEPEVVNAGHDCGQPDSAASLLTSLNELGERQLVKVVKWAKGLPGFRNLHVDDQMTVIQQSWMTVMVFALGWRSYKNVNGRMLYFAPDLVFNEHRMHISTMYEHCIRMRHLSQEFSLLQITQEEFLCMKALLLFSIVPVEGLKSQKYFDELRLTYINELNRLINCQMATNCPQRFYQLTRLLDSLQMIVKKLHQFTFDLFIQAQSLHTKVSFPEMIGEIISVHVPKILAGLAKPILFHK

medaka Esr1 (mEsr1) [2] = target: T2, medaka Esr1 (mEsr1) (Oryzias latipes, UniProt P50241); assay: Medaka Esr1 reporter gene assay, antagonist assay; format: cell-based, Japanese medaka (Oryzias latipes); details: E2 spiked at 1.0 nM (B); MAC = 1.0 × 10^−5 M
T2 sequence (P50241 1-620): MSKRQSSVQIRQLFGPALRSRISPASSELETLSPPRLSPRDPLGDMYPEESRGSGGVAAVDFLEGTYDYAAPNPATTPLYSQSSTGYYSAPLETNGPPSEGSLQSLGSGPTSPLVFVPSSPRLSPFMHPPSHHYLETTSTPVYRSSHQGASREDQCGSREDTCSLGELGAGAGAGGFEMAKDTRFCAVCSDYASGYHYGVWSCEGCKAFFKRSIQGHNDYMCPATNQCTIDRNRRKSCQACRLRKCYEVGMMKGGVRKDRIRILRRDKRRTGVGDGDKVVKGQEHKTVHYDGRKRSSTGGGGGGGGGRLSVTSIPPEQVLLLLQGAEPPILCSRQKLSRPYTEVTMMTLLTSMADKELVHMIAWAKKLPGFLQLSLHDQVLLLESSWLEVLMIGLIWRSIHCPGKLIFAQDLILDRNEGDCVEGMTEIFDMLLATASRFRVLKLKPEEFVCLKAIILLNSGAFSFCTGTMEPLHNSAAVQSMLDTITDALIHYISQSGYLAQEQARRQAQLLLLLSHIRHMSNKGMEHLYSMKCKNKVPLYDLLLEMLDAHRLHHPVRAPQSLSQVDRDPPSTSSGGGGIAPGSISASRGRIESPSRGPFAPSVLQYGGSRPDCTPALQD

[3] = system: Japanese medaka (Oryzias latipes); assay: Fish Short‐Term Reproduction Assay; format: in vivo; details: for GSI Female / GSI Male / HSI Female / HSI Male / Length Female / Length Male / Weight Female / Weight Male: completion of exposure
medaka Esr1 (mEsr1) [4] = target: T2, medaka Esr1 (mEsr1); assay: cell-based; parameters: species or system Japanese medaka (Oryzias latipes)
medaka ARβ (mArβ) [5] = target: T1, medaka ARβ (mArβ); assay: Medaka ARβ reporter gene assay, agonist assay; format: cell-based, Japanese medaka (Oryzias latipes); details: MAC = 1.0 × 10^−5 M
[6] = 177 μg/L measured, 21 d, sig. ↑ vs control
[7] = 353 μg/L measured, 21 d, sig. ↑ vs control
[8] = 353 μg/L measured, 21 d, sig. ↓ vs control
[9] = measured concentration 54.4 μg/L
[10] = measured concentration 104 μg/L
[11] = measured concentration 177 μg/L
[12] = measured concentration 353 μg/L

## Oc1cc(Cl)ccc1Oc1ccc(Cl)cc1Cl [TCS, Triclosan]
Medaka ARβ (mArβ) [1]
  Antagonistic activity: NE (MAC = 1.0 × 10^−5 M)^(D)
Medaka Esr1 (mEsr1) [2]
  Antagonistic activity: NE (MAC = 1.0 × 10^−5 M)^(B)
[3]; 54.4 μg/L measured, 21 d
  Fertility rate: 96 ± 3.3%
  Hepatic VTG, female: 616 ± 220 ng/mg‐liver
  Hepatic VTG, male: 3.3 ± 4.7 ng/mg‐liver
  Mortality: 4.2%
  Mortality, number of dead fish: 1
  Number of fertilized eggs (per female per day): 25 ± 4.0
  Number of total eggs (per female per day): 26 ± 3.8
  SSC female (joint plates with papillary processes): 0 ± 0
[3]; 104 μg/L measured, 21 d
  Fertility rate: 98 ± 1.4%
  Hepatic VTG, female: 698 ± 32 ng/mg‐liver
  Hepatic VTG, male: 4.5 ± 2.7 ng/mg‐liver
  Mortality: 13%
  Mortality, number of dead fish: 3
  Number of fertilized eggs (per female per day): 24 ± 1.0
  Number of total eggs (per female per day): 24 ± 1.1
  SSC female (joint plates with papillary processes): 0 ± 0
[3]; 177 μg/L measured, 21 d
  Fertility rate: 97 ± 1.5%
  Number of fertilized eggs (per female per day): 18 ± 7.0
  Number of total eggs (per female per day): 19 ± 7.2
  SSC female (joint plates with papillary processes): 0 ± 0
[3]; [6]
  Hepatic VTG, female: 955 ± 73 ng/mg‐liver
  Mortality: 29%
  Mortality, number of dead fish: 7
[3]; 177 μg/L measured, 21 d, sig. ↓ vs control
  Hepatic VTG, male: 0.9 ± 0.1 ng/mg‐liver
[3]; 353 μg/L measured, 21 d
  Fertility rate: 98 ± 0.8%
  SSC female (joint plates with papillary processes): 0 ± 0
[3]; [7]
  Hepatic VTG, female: 1,111 ± 265 ng/mg‐liver
  Mortality: 50%
  Mortality, number of dead fish: 12
[3]; [8]
  Hepatic VTG, male: 1.0 ± 0.3 ng/mg‐liver
  Number of fertilized eggs (per female per day): 10 ± 1.9
  Number of total eggs (per female per day): 10 ± 2.0
[3]; 21 d
  Change of hepatic VTG levels in females (in words): significant increase
  Fecundity, number of total eggs (in words): statistically significant decrease
[3]; Oryzias latipes, 504 h, read-out: LOECmVTG
  minimal effective concentration: > 0.353 µg/mL
[3]; chemicals with significant decrease of number of total eggs
  Fertility rate (in words): no significant effect
[3]; lowest observed effect concentration on mortality
  LOECTOX: 177 µg/L
[3]; [9]
  GSI Female: 7.3 ± 0.4%
  GSI Male: 1.00 ± 0.13%
  HSI Female: 3.8 ± 0.40%
  HSI Male: 1.6 ± 0.23%
  Length Female: 33.5 ± 0.7 mm
  Length Male: 33.6 ± 0.7 mm
  Weight Female: 449 ± 11 mg
  Weight Male: 379 ± 28 mg
[3]; [10]
  GSI Female: 7.5 ± 0.6%
  GSI Male: 1.00 ± 0.23%
  HSI Female: 3.7 ± 0.79%
  HSI Male: 1.5 ± 0.09%
  Length Female: 32.8 ± 1.1 mm
  Length Male: 34.8 ± 0.7 mm
  Weight Female: 409 ± 20 mg
  Weight Male: 417 ± 13 mg
[3]; [11]
  GSI Female: 7.9 ± 1.4%
  GSI Male: 0.90 ± 0.17%
  HSI Female: 3.8 ± 0.30%
  HSI Male: 1.4 ± 0.41%
  Length Female: 32.4 ± 1.3 mm
  Length Male: 33.3 ± 0.9 mm
  Weight Female: 425 ± 45 mg
  Weight Male: 380 ± 66 mg
[3]; [12]
  GSI Female: 8.7 ± 1.1%
  GSI Male: 1.20 ± 0.73%
  HSI Female: 4.5 ± 0.23%
  HSI Male: 2.4 ± 1.08%
  Length Female: 33.2 ± 0.9 mm
  Length Male: 33.3 ± 1.5 mm
  Weight Female: 437 ± 30 mg
  Weight Male: 361 ± 57 mg
Medaka Esr1 (mEsr1) [4]
  Agonistic activity PC10: PC10 = 2.0 × 10^−6 M
Medaka Esr1 (mEsr1) [4]; mode of action in which EC50 or PC10 was obtained in RGA
  In vitro positive: Esr: Esr
Medaka ARβ (mArβ) [5]
  Agonistic activity: NE (MAC = 1.0 × 10^−5 M)
